Entries after “also recorded” stand apart in the source; their conditions may differ.
Tests used:
HDAC I/II [1] = assay: HDAC-Glo I/II assay in HCT116 cells; assay type: cell-based, human; settings: for HDAC I/II inhibitory activity (in words): HCT116 and HEK293 cells, validation with epigenetics libraries; for HDAC-Glo: Efficacy, HCT116 / Efficacy, HDAC-Glo I/II HCT116 assay: maximal response; for HDAC activity inhibited, HDAC-Glo I/II: HCT116, qHTS primary screening of NPC library; for IC50, HDAC-Glo activity: HCT116, validation with epigenetics libraries, 0.7 nM-46 μM
human neural stem cells = assay: CellTiter-Glo cell viability assay in hNSC; assay type: cell-based; settings: cherry-pick confirmation, 1 hour
HCT116 cells = assay: CellTiter-Glo cell viability assay in HCT116; assay type: cell-based, human; settings: cherry-pick confirmation, 1 hour
HDAC I/II [2] = assay: HDAC-Glo I/II assay in human neural stem cells; assay type: cell-based; settings: cherry-pick confirmation; for HDAC-Glo: Efficacy, hNSC: maximal response; for inhibition of HDAC-Glo I/II luminescence signals: hNSCs, Figure 2; for IC50: read-out: HDAC-Glo: IC50, hNSC, 11 concentrations, 1 hour
HDAC I/II [3] = assay: HDAC-Glo I/II assay in HEK293 cells; assay type: cell-based, human; settings: HEK293, validation with epigenetics libraries, 0.7 nM-46 μM
HDAC3 = HDAC3 (Homo sapiens, UniProt O15379); assay: Fluorogenic isoform-specific HDAC assay, HDAC3; assay type: biochemical; settings: 20 μM
HDAC3, sequence (O15379 whole entry, canonical isoform): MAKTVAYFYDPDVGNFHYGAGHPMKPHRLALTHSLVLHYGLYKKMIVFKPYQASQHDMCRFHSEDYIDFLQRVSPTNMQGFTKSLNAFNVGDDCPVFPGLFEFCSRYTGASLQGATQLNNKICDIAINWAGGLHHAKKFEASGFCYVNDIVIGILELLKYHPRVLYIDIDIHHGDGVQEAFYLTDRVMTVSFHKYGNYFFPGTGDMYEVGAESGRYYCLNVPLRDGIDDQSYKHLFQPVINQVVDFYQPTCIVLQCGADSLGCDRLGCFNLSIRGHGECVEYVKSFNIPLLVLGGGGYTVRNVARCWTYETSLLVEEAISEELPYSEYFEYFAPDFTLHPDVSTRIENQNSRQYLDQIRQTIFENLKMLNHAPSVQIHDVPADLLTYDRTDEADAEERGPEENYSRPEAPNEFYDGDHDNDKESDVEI
HDAC3, sequence (Q9Y618 395-489 partner limits assumed): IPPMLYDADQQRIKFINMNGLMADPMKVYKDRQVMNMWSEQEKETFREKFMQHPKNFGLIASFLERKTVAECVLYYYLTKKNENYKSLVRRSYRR

[4] = test system: class I and II HDAC enzymes; assay: Panel of fluorogenic assays against ten class I and II HDAC isoforms; assay type: biochemical, human; settings: 20 μM; for inhibition of HDAC isoforms (in words): Figure 3
[5] = read-out: HDAC-Glo: IC50, HCT116, cherry-pick confirmation, 11 concentrations, 1 hour
[6] = read-out: IC50, HDAC-Glo I/II HCT116 assay, powder confirmation

Compound | Viability: IC50, hNSC (human neural stem cells) | Viability: IC50, HCT116 (HCT116 cells) | HDAC-Glo: Efficacy, hNSC (HDAC I/II [2]) [%] | IC50 (HDAC I/II [2]) [nM] | HDAC-Glo: Efficacy, HCT116 (HDAC I/II [1]; cherry-pick confirmation) | IC50 (HDAC I/II [1]; [5]) [nM] | Efficacy, HDAC-Glo I/II HCT116 assay (HDAC I/II [1]; powder confirmation) | IC50 (HDAC I/II [1]; [6]) [nM] | further results
Nc1cc(F)ccc1NC(=O)/C=C/c1cnn(C/C=C/c2ccccc2)c1 [RGFP966] | – | – | – | – | – | – | – | – | HDAC I/II inhibitory activity (in words) (HDAC I/II [1]): identified
CN(C)C(=O)COC(=O)Cc1ccc(OC(=O)c2ccc(NC(=N)N)cc2)cc1 [Camostat] | Inactive | Inactive | 102 ± 3 | 950 ± 200 | 109 ± 4% | 1940 ± 660 | – | – | inhibition of HDAC-Glo I/II luminescence signals (HDAC I/II [2]): completely inhibited
c1ccc2[nH]c(-c3cscn3)nc2c1 [thiabendazole] | – | – | – | – | – | – | – | – | HDAC activity inhibited, HDAC-Glo I/II (HDAC I/II [1]): more than half
O=C(O)CCCc1ccccc1 [sodium phenylbutyrate] | – | – | – | – | – | – | – | – | IC50, HDAC-Glo activity (HDAC I/II [3]): did not show concentration-dependent inhibition; IC50, HDAC-Glo activity (HDAC I/II [1]): did not show concentration-dependent inhibition
O=C(Oc1ccccc1)c1cccc(C(=O)Oc2ccccc2)c1 [Diphenyl isophthalate] | Inactive | Inactive | 103 ± 3 | 2240 ± 150 | 112 ± 5% | 3870 ± 810 | 97 ± 0% | 5280 ± 630 | inhibition of HDAC3 (in words) (HDAC3): selectively inhibited
O=C(CCCCCN1C(=O)c2cccc3cccc(c23)C1=O)NO [Scriptaid] | Inactive | Inactive | 113 ± 6 | 1190 ± 250 | 123 ± 3% | 1870 ± 220 | 93 ± 1% | 1760 ± 240 | inhibition against all class I and II HDAC enzymes [4]: over 80%; inhibition of HDAC isoforms (in words) [4]: inhibited activities of all isoforms
CCC[S+]([O-])c1ccc2[nH]c(NC(=O)OC)nc2c1 (stereo not shown) [albendazole oxide] | – | – | – | – | – | – | – | – | HDAC activity inhibited, HDAC-Glo I/II (HDAC I/II [1]): more than half
CCCSc1ccc2nc(NC(=O)OC)[nH]c2c1 [albendazole] | – | – | – | – | – | – | – | – | HDAC activity inhibited, HDAC-Glo I/II (HDAC I/II [1]): more than half
CC(C)c1ccc2oc3nc(N)c(C(=O)O)cc3c(=O)c2c1 [Amlexanox] | Inactive | Inactive | 96 ± 7 | 1100 ± 140 | 110 ± 2% | 1090 ± 70 | 98 ± 0% | 1650 ± 360 | –
O=C(/C=C/c1ccc(O)cc1)c1ccc(O)cc1O [Isoliquiritigenin] | Inactive | Inactive | 117 ± 5 | 2020 ± 130 | 110 ± 3% | 1670 ± 190 | 97 ± 0% | 2360 ± 110 | inhibition of HDAC isoforms (in words) [4]: weakly inhibited many class I and II HDAC enzymes
selisistat [selisistat (EX-527)] | – | – | – | – | – | – | – | – | average IC50, HDAC-Glo I/II, assay selectivity (HDAC I/II [1]; HCT116, Figure 1C): inactive
CCC(=O)CCCCC[C@@H]1NC(=O)[C@H]2CCCCN2C(=O)[C@H]([C@@H](C)CC)NC(=O)[C@H](Cc2cn(OC)c3ccccc23)NC1=O [apicidin] | – | – | – | – | – | – | – | – | HDAC I/II inhibitory activity (in words) (HDAC I/II [1]): identified
Cc1oncc1C(=O)Nc1ccc(C(F)(F)F)cc1 [Leflunomide] | Inactive | Inactive | 106 ± 2 | 5900 | 118 ± 11% | 9480 ± 1980 | 92 ± 0% | 5610 ± 120 | inhibition of HDAC3 (in words) (HDAC3): selectively inhibited
CC(C)(C)OC(=O)Nc1ccc(-c2cc(C(=O)NCCCCCCC(=O)NO)no2)cc1 [ISOX] | Inactive | Inactive | 118 ± 6 | 1960 ± 350 | 124 ± 5% | 2320 ± 650 | – | – | –
CCCCc1nc2cc(/C=C/C(=O)NO)ccc2n1CCN(CC)CC [Pracinostat] | Inactive | Inactive | 112 ± 5 | 270 ± 60 | 114 ± 4% | 350 ± 60 | – | – | –
O=C(Nc1ccc([N+](=O)[O-])cc1Cl)c1cc(Cl)ccc1O [Niclosamide] | Inactive | Inactive | 102 ± 4 | 1400 ± 240 | 112 ± 2% | 2380 ± 160 | 98 ± 1% | 2080 ± 170 | –
Oc1ccc(/C=C/c2cc(O)cc(O)c2)cc1 [Resveratrol] | Inactive | Inactive | 102 ± 4 | 7430 | 97 ± 13% | 11000 ± 1980 | 69 ± 2% | 18200 ± 2050 | inhibition of HDAC-Glo I/II luminescence signals (HDAC I/II [2]): completely inhibited; HDAC I/II inhibitory activity (in words) (HDAC I/II [1]): identified
Nc1ccccc1NC(=O)c1ccc(CNC(=O)OCc2cccnc2)cc1 [entinostat] | – | – | – | – | – | – | – | – | HDAC I/II inhibitory activity (in words) (HDAC I/II [1]): identified
CC(C)[C@H](C(=O)Nc1ccc(C(=O)NO)cc1)c1ccccc1 [AR-42] | Inactive | Inactive | 115 ± 5 | 760 ± 170 | 113 ± 2% | 940 ± 110 | – | – | –
CCCC(CCC)C(=O)O [valproic acid] | – | – | – | – | – | – | – | – | IC50, HDAC-Glo activity (HDAC I/II [3]): did not show concentration-dependent inhibition; IC50, HDAC-Glo activity (HDAC I/II [1]): did not show concentration-dependent inhibition
Nc1cc(F)ccc1NC(=O)c1ccc(CNC(=O)/C=C/c2cccnc2)cc1 [chidamide] | – | – | – | – | – | – | – | – | HDAC I/II inhibitory activity (in words) (HDAC I/II [1]): identified
C[C@@H]1NC(=O)[C@H]2CCCN2C(=O)[C@H](CCCCCC(=O)[C@@H]2CO2)NC(=O)[C@@H](C)NC1=O [HC Toxin] | – | – | – | – | – | – | – | – | HDAC I/II inhibitory activity (in words) (HDAC I/II [1]): identified
Cc1nc(-c2ccc(OCC(C)C)c(C#N)c2)sc1C(=O)O [Febuxostat] | Inactive | Inactive | 116 ± 3 | 2160 ± 600 | 127 ± 5% | 2380 ± 440 | 96 ± 1% | 2430 ± 270 | inhibition of HDAC3 (in words) (HDAC3): selectively inhibited; also recorded: selective to HDAC3
CCCC(=O)[O-].[Na+] [sodium butyrate] | – | – | – | – | – | – | – | – | IC50, HDAC-Glo activity (HDAC I/II [3]): did not show concentration-dependent inhibition; IC50, HDAC-Glo activity (HDAC I/II [1]): did not show concentration-dependent inhibition
O=C(CCCCCCC(=O)Nc1ccccc1)NO [Vorinostat, suberoylanilide hydroxamic acid] | Inactive | Inactive | 101 ± 2 | 660 ± 80 | 0.77 ± 0.05 (119 ± 6) % | – | 0.45 ± 0.04 (99 ± 0) % | – | –
